pIC50, pKd: −log10 of the molar value. Read-outs that look alike come from different tables or passages of the source. Values belong to the molecule of their own block, whether it stands above or below them.
Key:
S. Aureus = experiment: MIC, S. Aureus; type: cell-based
Procedure, shortened: (§1)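 Broth microdilution in duplicate, 150 μL: overnight-culture bacteria were added to compound in 4% DMSO in water. Final inoculum was about 10^5–10^6 CFU/well.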

[1] = tested on: Staphylococcus aureus (Smith Strain ATCC 13709); experiment: Staphylococcus aureus mouse protection assay; type: in vivo, mice; settings: for # Dead mice/Total mice in group: Staph Conc. 10^6, 10% Mucin
Procedure: Two of the novel aminoglycoside compounds of the invention were examined for their anitbacterial activity against staphylococcus aureus. Mice were fed with autoclaved commercial food pellets and sterile water ad libitum. Animals were inoculated intraperitoneally with 0.5 mL/mouse of the indicated concentration of S. aureus (ATCC 13709) containing 10% mucin. There were 10 mice in each treatment group and compounds were administered subcutaneously one and 3 hour after infection. Compounds 15a (R4═R5═CH3) and 15j (R4═H, R5═(CH2)2C6H5)) were used at 75 mg/kg, 37.5 mg/kg, 18.8 mg/kg, 9.4 mg/kg, 4.7 mg/kg, 2.3 mg/kg, 1.17 mg/kg and 0.5 mg/kg. Amakacin, paromomycin and neomycin were used as the positive controls at concentrations of 2 mg/kg, 1 mg/kg and 0.5 mg/kg.
Test compound was administered as an aqueous buffer solution (phosphate buffered saline (PBS), pH=7.4).

[2] = tested on: E. coli S30 bacterial extract (pBestLuc firefly luciferase reporter); experiment: Coupled bacterial transcription/translation assay; type: biochemical; settings: read-out: Trans/Trans IC50
Procedure, shortened: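 Coupled transcription/translation of firefly luciferase from 1 μg pBestLuc (tac promoter) in E. coli S30 extract, with or without test compound. Reaction 35 min at 37° C., then functional luciferase detected by luminescence.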

P. vulgaris ATCC 8427 = experiment: MIC, P. vulgaris ATCC 8427; type: cell-based
Procedure: (§2) The MIC assays are carried out in 150 μL volume in duplicate in 96-well clear flat-bottom plates. The bacterial suspension from an overnight culture growth in appropriate medium is added to a solution of test compound in 4% DMSO in water. Final bacterial inoculum is approximately 10^5-10^6 CFU/well. […] Both ampicillin and tetracycline are used as antibiotic-positive controls in each screening assay for S. pyogenes, E. coli imp-, E. coli, S. aureus, E. faecalis, K. pneumoniae and P. vulgaris. Ciprofloxacin is used as an antibiotic positive control in each screening assay for P. aeruginosa.
(§3) The following compounds were prepared using methods illustrated in the previous examples. The compounds were also examined in standard bacterial assays against E. Coli, S. Aureus, P. aurginosa, K. pneumoniae, P. vulgaris, and A. baumannii to determine activities. Each of the bacterial cultures that are available from ATCC (www.atcc.org) is identified by its ATCC number. A. baumannii is gentamicin sensitive Acinetobacter baumannii #2 from Walter Reed.

K. pneumoniae ATCC 10031 = experiment: MIC, K. pneumoniae ATCC 10031; type: cell-based
Procedure: as §2, §3

P. aurginosa ATCC 25416 = experiment: MIC, P. aurginosa ATCC 25416; type: cell-based
Procedure: as §2, §3

[3] = tested on: gentamicin sensitive Acinetobacter baumannii #2 from Walter Reed; experiment: MIC, A. baumannii WReed 2; type: cell-based
Procedure: as §2, §3

E. Coli = experiment: MIC, E. Coli; type: cell-based
Procedure, shortened: as §1

S. aureus ATCC 13709 = experiment: MIC, S. aureus ATCC 13709; type: cell-based
Procedure: as §2, §3

E. coli ATCC 25922 = experiment: MIC, E. coli ATCC 25922; type: cell-based
Procedure: as §2, §3

P. aurginosa ATCC 29248 = experiment: MIC, P. aurginosa ATCC 29248; type: cell-based
Procedure: as §2, §3

[4] = biological target: 16S ribosomal subunit RNA target; experiment: Mass spectrometry based binding assay (FTICR), 16S
Procedure, shortened: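 Binding to the 16S ribosomal subunit RNA target was measured by FTICR mass spectrometry. Ligands or ligand mixtures were prepared at several concentrations in 10 μL of aqueous 100 mM ammonium acetate buffer with 33% isopropyl alcohol. Samples were infused at 1 μL/min into a negative-mode electrospray source, and ions were held 1 sec in an RF-only hexapole. Complex/free RNA ratios versus ligand concentration were fitted to a binding polynomial to obtain KD.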

[5] = biological target: 18S ribosomal subunit RNA target; experiment: Mass spectrometry based binding assay (FTICR), 18S
Procedure, shortened: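 Ligands at varying concentrations were mixed with 2.5 or 5 μM RNA in 100 mM ammonium acetate with 33% isopropyl alcohol, then analysed by negative-mode ESI-FTICR. Complex/free RNA ion ratios plotted against ligand concentration were fitted to a second- or higher-order binding polynomial to give KD.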

[6] = Example 110, listed as 9p - sample 1
[7] = Example 110, listed as 9p - sample 2

SMILES: NCC1OC(OC2C(CO)OC(OC3C(O)C(N)CC(N)C3OC3OC(CO)C(O)C(O)C3N)C2OCCNCCc2ccccc2)C(N)C(O)C1O (stereo not drawn) [Compound 9p]
MIC S. Aureus (S. Aureus; Example 105): 0.3 to 0.6 µM
# Dead mice/Total mice in group ([1]; 0.1 mg/kg in PBS pH=7.4, the 14th table): 5/10 (10% Mucin)
# Dead mice/Total mice in group ([1]; 0.5 mg/kg in PBS pH=7.4, the 14th table): 0/10 (10% Mucin)
# Dead mice/Total mice in group ([1]; 1 mg/kg in PBS pH=7.4, the 14th table): 0/10 (10% Mucin)
# Dead mice/Total mice in group ([1]; 2 mg/kg in PBS pH=7.4, the 14th table): 0/10 (10% Mucin)
# Dead mice/Total mice in group ([1]; 4.5 mg/kg in PBS pH=7.4, the 14th table): 0/10 (10% Mucin)
# Dead mice/Total mice in group ([1]; 9 mg/kg in PBS pH=7.4, the 14th table): 0/10 (10% Mucin)
# Dead mice/Total mice in group ([1]; 18 mg/kg in PBS pH=7.4, the 14th table): 0/10 (10% Mucin)
# Dead mice/Total mice in group ([1]; 37 mg/kg in PBS pH=7.4, the 14th table): 0/10 (10% Mucin)
# Dead mice/Total mice in group ([1]; 75 mg/kg in PBS pH=7.4, the 14th table): 0/10 (10% Mucin)
# Dead mice/Total mice in group ([1]; […] in PBS pH=7.4, the 14th table): 1/10 (10% Mucin)
smallest protective dose ([1]; protective at doses as small as, summary of the 14th table): 0.25 mg/kg
prevention of lethal bacterial infections in mice ([1]; result in words, summary of the 14th table): effective at preventing lethal bacterial infections in mice
pIC50 ([2]; Example 105): 5.96
MIC P. vulgaris ATCC 8427 (P. vulgaris ATCC 8427; [6]): 2.5-5^ uM
MIC P. vulgaris ATCC 8427 (P. vulgaris ATCC 8427; [7]): 20 to 40 µM
MIC P. vulgaris ATCC 8427 (P. vulgaris ATCC 8427; Example 111): >40 µM
MIC K. pneumoniae ATCC 10031 (K. pneumoniae ATCC 10031; [6]): 1.3 to 2.5 µM
MIC K. pneumoniae ATCC 10031 (K. pneumoniae ATCC 10031; [7]): >40 µM
MIC K. pneumoniae ATCC 10031 (K. pneumoniae ATCC 10031; Example 111): 2.5-5^ uM
MIC P. aurginosa ATCC 25416 (P. aurginosa ATCC 25416; Example 110): >40 µM
MIC P. aurginosa ATCC 25416 (P. aurginosa ATCC 25416; Example 111): >40 µM
MIC A. baumannii WReed 2 [3, 6]: 2.5-5^ uM
MIC A. baumannii WReed 2 [3, 7]: >40 µM
MIC A. baumannii WReed 2 ([3]; Example 111): >40 µM
MIC E. Coli. (E. Coli; Example 105): 3 to 6 µM
MIC S. aureus ATCC 13709 (S. aureus ATCC 13709; [6]): 10 to 20 µM
MIC S. aureus ATCC 13709 (S. aureus ATCC 13709; [7]): 1.2 to 2.5 µM
MIC S. aureus ATCC 13709 (S. aureus ATCC 13709; Example 111): 0.6 to 1.3 µM
MIC E. coli ATCC 25922 (E. coli ATCC 25922; [6]): 5 to 10 µM
MIC E. coli ATCC 25922 (E. coli ATCC 25922; [7]): >40 µM
MIC E. coli ATCC 25922 (E. coli ATCC 25922; Example 111): 5 to 10 µM
MIC P. aurginosa ATCC 29248 (P. aurginosa ATCC 29248; Example 110): >40 µM
MIC P. aurginosa ATCC 29248 (P. aurginosa ATCC 29248; Example 111): >40 µM
pKd ([4]; FTICR mass spectrometry, run at 100 nM RNA, Example 105): 7.00
pKd ([5]; FTICR mass spectrometry, Example 105): 5.89

SMILES: NCC1OC(OC2C(CO)OC(OC3C(O)C(N)CC(N)C3OC3OC(CNCCc4ccccc4)C(O)C(O)C3N)C2O)C(N)C(O)C1O (stereo not drawn) [Compound 15j]
MIC S. Aureus (S. Aureus; Example 108): 0.3 to 0.6 µM
# Dead mice/Total mice in group ([1]; 0.5 mg/kg subcutaneously, the 13th table): 7/10
# Dead mice/Total mice in group ([1]; 1 mg/kg subcutaneously, the 13th table): 0/10
# Dead mice/Total mice in group ([1]; 2 mg/kg subcutaneously, the 13th table): 0/10
# Dead mice/Total mice in group ([1]; 4.5 mg/kg subcutaneously, the 13th table): 0/10
# Dead mice/Total mice in group ([1]; 9 mg/kg subcutaneously, the 13th table): 0/10
# Dead mice/Total mice in group ([1]; 18 mg/kg subcutaneously, the 13th table): 0/10
# Dead mice/Total mice in group ([1]; 37 mg/kg subcutaneously, the 13th table): 0/10
# Dead mice/Total mice in group ([1]; 75 mg/kg subcutaneously one and 3 hour after infection, intraperitoneal, the 13th table): 0/10
pIC50 ([2]; Example 108): 6.70
MIC P. vulgaris ATCC 8427 (P. vulgaris ATCC 8427; Example 110): 1.3 to 2.5 µM
MIC P. vulgaris ATCC 8427 (P. vulgaris ATCC 8427; Example 111): >40 µM
MIC K. pneumoniae ATCC 10031 (K. pneumoniae ATCC 10031; Example 110): <0.6 µM
MIC K. pneumoniae ATCC 10031 (K. pneumoniae ATCC 10031; Example 111): 0.6 to 1.3 µM
MIC P. aurginosa ATCC 25416 (P. aurginosa ATCC 25416; Example 110): >40 µM
MIC P. aurginosa ATCC 25416 (P. aurginosa ATCC 25416; Example 111): >40 µM
MIC A. baumannii WReed 2 ([3]; Example 110): 1.3 to 2.5 µM
MIC A. baumannii WReed 2 ([3]; Example 111): 20 to 40 µM
MIC E. Coli. (E. Coli; Example 108): 1.3 to 2.5 µM
MIC S. aureus ATCC 13709 (S. aureus ATCC 13709; Example 110): 10 to 20 µM
MIC S. aureus ATCC 13709 (S. aureus ATCC 13709; Example 111): 0.3 to 0.6 µM
MIC E. coli ATCC 25922 (E. coli ATCC 25922; Example 110): 1.3 to 2.5 µM
MIC E. coli ATCC 25922 (E. coli ATCC 25922; Example 111): 1.3 to 2.5 µM
MIC P. aurginosa ATCC 29248 (P. aurginosa ATCC 29248; Example 110): >40 µM
MIC P. aurginosa ATCC 29248 (P. aurginosa ATCC 29248; Example 111): >40 µM
pKd ([4]; Example 108): 6.30
pKd ([5]; Example 108): 5.66

MIC S. Aureus (S. Aureus; Example 109): 0.3 to 0.6 µM
MIC P. vulgaris ATCC 8427 (P. vulgaris ATCC 8427; Example 111): >40 µM
MIC K. pneumoniae ATCC 10031 (K. pneumoniae ATCC 10031; Example 111): 0.6 to 1.3 µM
MIC P. aurginosa ATCC 25416 (P. aurginosa ATCC 25416; Example 111): >40 µM
MIC A. baumannii WReed 2 ([3]; Example 111): 10 to 20 µM
MIC E. Coli. (E. Coli; Example 109): 0.6 to 1.2 µM
MIC S. aureus ATCC 13709 (S. aureus ATCC 13709; Example 111): 0.2 to 0.3 µM
MIC E. coli ATCC 25922 (E. coli ATCC 25922; Example 111): 1.3 to 2.5 µM
MIC P. aurginosa ATCC 29248 (P. aurginosa ATCC 29248; Example 111): >40 µM
SMILES: NCC1OC(OC2C(CO)OC(OC3C(O)C(N)CC(N)C3OC3OC(CNCCCc4ccccc4)C(O)C(O)C3N)C2O)C(N)C(O)C1O (stereo not drawn) [Compound 15l]
